# Test system: NF-κB DNA binding activity
# Test: Electrophoresis mobility shift assay (EMSA) of NF-κB DNA binding in RAW 264.7 nuclear extracts
# Assay type: cell-based, mouse
# Conditions: RAW 264.7, 2 hrs
# Protocol: FIG. 6A and 6B. Inhibition of LPS induced NF-κB activation by HMP. 6A: Nuclear protein lysates of RAW 264.7 cells were prepared after 2 hrs of treatment with LPS (0.5 μg/ml) either alone or with different concentration of HMP. Six μg of nuclear protein was used in DNA binding assay and the total binding reaction was resolved in 5% nondenaturing polyacrylamide gel. The retarded bands are indicated with arrow. Data represent one of three experiments performed separately with similar results. Lane 1, control; 2, LPS (0.5 μg/ml); 3, LPS+HMP (25 μM); 4, HMP (12.5 μM). NS, non specific. 6B: Plot of integrated signal density for each lane in FIG. 6A.
# RAW 264.7 cells were treated with either LPS (0.5 μg/ml) alone or with various concentration of HMP for 2 hrs. Thereafter, nuclear extracts were prepared using a modified method (Lahti et al., 2000 294:1188-1194). Briefly, cells were washed once with PBS (pH 7.2) and were suspended in hypotonic buffer A [10 mM HEPES (pH 7.6), 10 mM KCl, 0.1 mM EDTA, 1 mM DTT, 0.5 mM PMSF] for 10 min on ice, and vortexed for 10 sec. Nuclei were pelleted by centrifugation at 12,000 g for 5 minutes. […] Mobility shift of DNA due to binding of NF-κB complex was detected by Phosphor Imager-445 SI (Molecular Dynamics, Amarsham-Pharmacia, NJ, USA).
compound,measurement,setting,value
"COc1cc(CC/C=C/C(=O)CCc2ccccc2)ccc1O [AO-4, 7-(4″-hydroxy-3″-methoxyphenyl)-1-phenyl-hept-4-en-3-one]","LPS induced NF-κB DNA binding activity (EMSA, in words)",HMP 25 μM + LPS (0.5 μg/ml),marked inhibition
same,"relative levels of NF-κB DNA binding activity (EMSA, in words)",HMP 12.5 and 25 μM + LPS (0.5 μg/ml),less in comparison to LPS alone

# — patent publication US20050215635A1, “Diarylheptanoid compounds and uses thereof” (priority 2004, published 2005)
